In patent publication US20130059818A1, “CARBOSILANE DENDRIMERS AND THE USE THEREOF AS ANTIVIRAL AGENTS” (UNIVERSIDAD DE ALCALA DE HENARES (UAH), priority 2010, published 2013):
“Also recorded” adds a separate entry of the source.

What was measured:
[1] = system: HEC-1A (human endometrial epithelial cells); experiment: MTT assay in HEC-1A; type: cell-based; conditions: up to 10 μM, FIG. 13A
Experimental: (§1) This method was selected to analyze detrimental intracellular effects on mitochondria and metabolic activity. The colorimetric MTT test, based on the selective ability of viable cells to reduce MTT to purple formazan, relies on intact metabolic activity and is frequently used for cytotoxicity screening. […] The concentration of formazan was then determined spectrophotometrically in a plate reader at a wavelength of 570 nm (test) and 690 nm (reference). The spectrophotometer was calibrated to zero absorbance by using Optimem medium without cells. The percentage cell viability relative to control wells (cells with no dendrimer) was calculated by ([A]test/[A]control)T100. […]

[2] = system: X4 HIV NL4.3 and R5 HIV Bal; experiment: CDi, CDm and macrophages pre-treatment; type: cell-based, HIV-1; conditions: pretreated 1 h, 50 ng virus
Experimental: Once the cells were differentiated, they were washed twice with PBS and 2*10^5 CDi, 2*10^5 CDm and 10^5 macrophages were dispensed in 200 μL of complete medium in bottom p96 wells. The dendrimer were added one hour prior to the infection. After adding the viral particles (50 ng), they were incubated in culture conditions and after 3 hours the supernatant was retired and washed 4 times with PBS. The supernatant was collected after 4 days. The viral concentration was quantified by ELISA.

PBMC [3] = experiment: MTT assay in PBMC; type: cell-based, human; conditions: 10 μM
Experimental: as §1

HIV-1 NL4.3 = experiment: PBMC pre-treatment / post-treatment infection inhibition; type: cell-based
Experimental: We used 2*10^5 stimulated PBMC cells dispensed in 200 μL of complete medium in round bottom wells of p96 plate. […] After this time, the wells were washed twice with PBS and were incubated in culture conditions. The viral concentration after 3 days was quantified by ELISA of p24.

PBMC [4] = experiment: LDH assay in PBMC; type: cell-based, human
Description: This technique (CytoTox 96® Non-Radioactive Cytotoxicity Assay) was used to test the damage in the cell membrane surface due to the presence of anionic peripheral groups of dendrimers. The lactate dehydrogenase (LDH) is an enzyme that is released into the […] due to cell lysis. The LDH assay, therefore, is a measure of membrane integrity, which is based on the […] and reduction of tetrazolium salts to formazan crystals by […].
1*10^5 cells/well were dispensed in 96-well plate round bottom in a volume of 100 μL of complete medium and the dendrimer was added in a volume of 100 μL, to obtain a final volume of 200 μL in the well. Controls: 1. 200 μL of complete medium without cells (background control), 2. 100 μL of cells+100 μL of complete medium, 3. 100 μL of cells+100 μL of Triton X-100 0.2% 4. 100 μL of cells+100 μL with the dendrimer to the desired concentration. Incubated in culture conditions during the first 24 h. Plate was centrifuged at 1500 rpm 10 minutes and removed 100 μL of supernatant, being careful not to take the cells. 100 μL of reaction mixture prepared at the time on the 100 μL was added of supernatant and incubated at room temperature for 30 minutes in darkness. Finally, measured at 490 nm and 690 nm reference. The cytotoxicity was obtained from the following formula: Cytotoxicity (%)=(4−2)/(3−2)*100

[5] = system: TNF-alpha transcriptional activity (pTNF-luc); experiment: Transfection of Jurkat cells with pTNF-luc plasmid; type: cell-based; conditions: 5 and 10 micromolar, 16 hours, versus control cells without stimulating
Experimental: Inflammation experiments: the experiments were conducted with transient transfection using plasmid indicators pTNF-luc and pNF-κB-luc containing 3 copies in tandem of site NF-κB of the promoter. The Jurkat cell line was nucleofected with the AMAXA nucleofector following the commercial house protocol “cell line nucleofector kit V” and the specific programme used in the X-005. Transfected cells were stimulated for 16 hours with the different stimuli that appear in the graphs (TNF-alpha, antibody monoclonal anti-TNF-alpha and different concentrations (5 and 10 micromolar) of the anionic sulfonate dendrimer). After different treatments, the transfected cells were collected by centrifugation and lysed with commercial tampon lysis “Dual-luciferase Assay System Kit” (Promega), according to the manufacturer's recommendations. The amount of protein in 5 μl of lysed cell was measured by the method of BSA-BCA (Pierce, Rockford, USA). Once quantified, the values of all the samples were normalized to 20 micrograms to measure the luciferase activity for about 10 seconds in a luminometer 1450 Microbeta Luminiscence Counter (Walax, Trilux). Luciferasa activity of firefly values are expressed as induction with respect to cells control. […]

[6] = system: HIV (X4 and R5-tropic virus); experiment: Inhibition of transcytosis through HEC-1A monolayer (transwell); type: cell-based
Experimental: To obtain a perfect monolayer of polarized epithelial cells, the HEC-1A were grown in complete medium on a permeable polycarbonate support of 0.4 μm pore (Costar, Cambridge, Mass.). Then, 2*10^5 cells by well were cultivated for 7 days, with media changes every 2-3 days. The dendrimer were added one hour prior to the infection. […] The viral concentration was quantified by ELISA.
To reproduce in the best possible way the role that the anionic dendrimer develop on the surface of the endometrium and to study the passage of virions through the mucosal stratified vaginal epithelium, we used transwell devices that recreate the phenomenon of transcytosis (transport of macromolecules from the extracellular space to another through the cytoplasm of a cell via an endocytic vesicle) due to the possibility of forming a perfect monolayer of adherent cells on the inside and collect information from the supernatants of the apical and basolateral side of the monolayer. […]

[7] = system: HIV-1 NL4.3 (X4 tropic) and HIV-1 BaL (R5 tropic); experiment: Action mechanism: virus treated with dendrimer before exposure to PBMC; type: cell-based; conditions: 10 μM, 4 days of culture
Experimental: It was used for this experiment a 96 well plate of flat bottom with Poli-L-lysine (PLL, Sigma® covering the bottom of the well. For this purpose, 50 uL of PLL were incubated at 37° C. for one hour. After washing the wells three times with PBS, 4 ng of HIV were incubated overnight at 4° C., to ensure that the virus particles were adhered to the bottom of the well. Each well was washed three times with PBS to remove HIV not adhered to the plate and then each well was treated with different dendrimer concentrations for 1 h. Afterward, it was necessary to washed the product with PBS and PBMC previously stimulated were added. The supernatant of this cell culture was recovered after 4 days and p24 antigen was quantified by ELISA to assess the amount of HIV produced by the PBMC in different treatments. As positive control of lysis of the viral particles Triton x-100 (1%) was used.
After verifying the effectiveness of the dendrimer to block adherence and internalization of virus particles, we proceeded to try to understand the mechanism of action. To this end, we designed an experiment that consisted of exposing the viral particles to the presence of dendrimer, to then use this combination in stimulated PBMC cultures (prepared for the viral infection). […]

NF-kB (pNF-kB-luc) = experiment: Transfection of Jurkat cells with pNF-kB-luc plasmid; type: cell-based
Experimental: Inflammation experiments: the experiments were conducted with transient transfection using plasmid indicators pTNF-luc and pNF-κB-luc containing 3 copies in tandem of site NF-κB of the promoter. The Jurkat cell line was nucleofected with the AMAXA nucleofector following the commercial house protocol “cell line nucleofector kit V” and the specific programme used in the X-005. Transfected cells were stimulated for 16 hours with the different stimuli that appear in the graphs (TNF-alpha, antibody monoclonal anti-TNF-alpha and different concentrations (5 and 10 micromolar) of the anionic sulfonate dendrimer). […] The amount of protein in 5 μl of lysed cell was measured by the method of BSA-BCA (Pierce, Rockford, USA). Once quantified, the values of all the samples were normalized to 20 micrograms to measure the luciferase activity for about 10 seconds in a luminometer 1450 Microbeta Luminiscence Counter (Walax, Trilux). Luciferasa activity of firefly values are expressed as induction with respect to cells control.
Jurkat cells were transfected with the pNF-kB-luc plasmid, they were cultivated in the presence of sulfonate (10 micromolar) for 16 hours and the luciferasa activity was measured. […] The results presented are expressed as standardized induction index with the values of cell controls without treatment control and it is a representative of three independent experiments.

PBMC [8] = experiment: Lymphoproliferative assay (BrdU incorporation); design: Mitogenic effect of dendrimer alone (BrdU incorporation): dose or concentration left out as unconfirmed
[9] = system: HEC-1A (human endometrial epithelial cells); experiment: LDH assay in HEC-1A; type: cell-based
Description: This technique (CytoTox 96® Non-Radioactive Cytotoxicity Assay) was used to test the damage in the cell membrane surface due to the presence of anionic peripheral groups of dendrimers. The lactate dehydrogenase (LDH) is an enzyme that is released into the cytoplasm due to cell lysis. The LDH assay, therefore, is a measure of membrane integrity, which is based on the oxidation of LDH to pyruvate and reduction of tetrazolium salts to formazan crystals by pyruvate.
1*10^5 cells/well were dispensed in 96-well plate round bottom in a volume of 100 μL of complete medium and the dendrimer was added in a volume of 100 μL, to obtain a final volume of 200 μL in the well. Controls: 1. 200 μL of complete medium without cells (background control), 2. 100 μL of cells+100 μL of complete medium, 3. 100 μL of cells+100 μL of Triton X-100 0.2% 4. 100 μL of cells+100 μL with the dendrimer to the desired concentration. Incubated in culture conditions during the first 24 h. Plate was centrifuged at 1500 rpm 10 minutes and removed 100 μL of supernatant, being careful not to take the cells. 100 μL of reaction mixture prepared at the time on the 100 μL was added of supernatant and incubated at room temperature for 30 minutes in darkness. Finally, measured at 490 nm and 690 nm reference. The cytotoxicity was obtained from the following formula: Cytotoxicity (%)=(4−2)/(3−2)*100 […]

Question: “ck-G1-[Si(CH2)4(N3C2H)CH2N(CH2CH2COONa)2]8 [G2CKCOO16]” was tested. Which “Cell viability (MTT toxicity curve)” value [1] did it give?
Answer: good cell viability

Question: mannan [reference compound] was tested. Which “Decrease of p24 antigen in immature dendritic cells” value [2] did it give?
Answer: significant

Question: Which “Cell viability (MTT toxicity curve)” value [1] does the source give for “ck-G1-[Si(CH2)4(N3C2H)CH2N(CH2PO(OMe)2)2]8 [G2CKP32]” here?
Answer: good cell viability

Question: With G1-[Si(CH2)3N(CH2CH2SO3Na)2]8 [G2SF16] as the molecule, how does the “Decrease of p24 antigen in immature dendritic cells” value [2] read?
Answer: significant

Question: And the “p24 in the supernatant of macrophages” value [2]?
Answer: clear decrease of p24

Question: And the “Mitochondrial activity (MTT)” value (PBMC [3])?
Answer: optimal mitochondrial activity

Question: What about the “Inhibition of infection, post-treatment” value (HIV-1 NL4.3; PBMC infected first, then dendrimer) of the same molecule?
Answer: 60%

Question: And the “Inhibition of infection, pre-treatment” value (HIV-1 NL4.3; PBMC treated with dendrimer prior to infection by HIV-1 NL4.3)?
Answer: 80%

Question: And the “Damage to the cell membrane (LDH)” value (PBMC [4])?
Answer: low damage

Question: And the “Concentration from which toxicity was presented (LDH)” value (PBMC [4]; 24 hours)?
Answer: ≥ 10 µM

Question: And the “Promoter activity of the pTNF-luc plasmid” value [5]?
Answer: two to three times lower

Question: What about the “Reduction of passage of viral particles through the monolayer” value ([6]; 5 μM, both X4 and R5 virus, basolateral supernatant at 24 and 48 hours) of the same molecule?
Answer: 40%

Question: And the “HIV (p24) in supernatant of PBMC after virus treated with dendrimer” value [7]?
Answer: low prevalence of HIV

Question: And the “Activity of the pNF-kB-luc plasmid” value (NF-kB (pNF-kB-luc); 10 micromolar, 16 hours)?
Answer: decrease in the activity of the pNF-kB-luc plasmid; also recorded: decreases the transcriptional activity of NF-kappa

Question: And the “Induction of NF-kB-luc by TNF-alpha” value (NF-kB (pNF-kB-luc); sulfonate + TNF-alpha)?
Answer: reversal of the induction of NF-kB-luc

Question: And the “Effect on mitogenic effect of PHA, treatment at the same time as PHA” value (PBMC [8]; PBMC, 4 days)?
Answer: slightly decreases the mitogenic effect

Question: And the “Mitogenic effect of dendrimer alone (BrdU incorporation)” value (PBMC [8]; PBMC, 4 days)?
Answer: no mitogenic effect

Question: And the “BrdU incorporation in PBMC previously stimulated with PHA” value (PBMC [8]; PHA for 3 days, then 4 days of treatment, FIG. 4B)?
Answer: decrease in BrdU incorporation; also recorded: inhibits the mitogenic effect of PHA

Question: For dextran, which “LDH in the supernatant with regard to the control” value ([9]; 24 hours of treatment) is on record?
Answer: ~10%

Question: What does the source list for Cc1ccc(C(=O)Nc2ccc(S(=O)(=O)O)c3cc(S(=O)(=O)O)cc(S(=O)(=O)O)c23)cc1NC(=O)c1cccc(NC(=O)Nc2cccc(C(=O)Nc3cc(C(=O)Nc4ccc(S(=O)(=O)O)c5cc(S(=O)(=O)O)cc(S(=O)(=O)O)c45)ccc3C)c2)c1 [Suramin, reference compound]?
Answer: Decrease of p24 antigen in immature dendritic cells [2]: significant; Reduction of passage of viral particles through the monolayer ([6]; 70 ng Bal virus, 1 h pretreatment, basolateral supernatant after 48 h, FIG. 20): lacks the inhibitory effect; Inhibitory effect on passage of viral particles through the monolayer ([6]; R5-tropic virus, positive control): no inhibitory effect; LDH release ([9]; after an hour of contact): did not show toxicity
